# Tests used:
# Mus musculus = organism: Mus musculus; assay: Contraceptive effect in mouse model of contraception; assay type: functional
# [1] = Inhibition of sperm motility in human Spermatozoa incubated for 1 to 2 hrs by computer assisted sperm analysis; assay type: functional, cell-based
# [2] = Inhibition of sperm motility in human Spermatozoa assessed as remaining progressive sperm motility relative to control; assay type: functional
# [3] = Half life in cynomolgus monkey at 1 mg/kg, iv administered as single infusion dose; assay type: ADME, organism-based, Macaca fascicularis; conditions: in vivo
IC50 [1],half-life [3],Compound,Activity (Mus musculus),Activity [2]
,,Cc1ccc(C2=CC(C)(C)Oc3ccc(-c4ccc(-c5ccc(C(=O)[O-])cc5)[nH]4)cc32)cc1.[Na+],>99%,
200 µM,< 12 min,COC(=O)NNc1nc(Nc2ccc(NC(C)=O)c(O)c2)nc(SCC(=O)O)n1,,<20%

# Reference: ChEMBL document CHEMBL5346865, “Male contraceptive development: A medicinal chemistry perspective” (Eur J Med Chem, 2022)
